“Also recorded” adds a separate entry of the source. Where two headings read alike, the source gives them in different places.
Key:
INS-1E = assay: reaction-based probe (DA-ZP1) fluorescence in a β-cell line; details: compared to other cell types
Description: (§1) All the imaging experiments were performed in 96 well plate. INS-1E, PANC1, αTC1.6, HEK293T and other cell types were plated in 96 well plate. 70 μL, 4×PFA was added in each well to fix the cells. After 15 minutes, all the wells were washed with PBS. After washing with PBS, 70 μL DAPI (1×) (nuclear stain) was added along with appropriate concentration of DAZP-1. The staining process was continued for 20 minute and 100 μL PBS as was added in each well.

[1] = tested on: aTC1.6, PANC1, HEK293T and cells of other lineages; assay: reaction-based probe (DA-ZP1) fluorescence in non-β cell types
Description: as §1

[2] = tested on: β-cells and alpha cells of dissociated rat or human islets; assay: probe incubation in dissociated islets, co-staining for insulin and glucagon; format: cell-based
Description: (§2) Next, this probe was incubated in dissociated rat or human islets, co-staining for insulin to identify β-cells and glucagon to identify alpha cells. […] Using confocal microscopy, distinct green-fluorescent vesicles were observed within β-cells (FIG. 3D), showing the high degree of resolution for the localization of this probe. Finally, 10-12-week old C57BL/6 mice were injected intraperitoneally with a single dose of 50 mg/kg DA-ZP1 or DMSO.

islets = assay: islet fluorescence after intraperitoneal injection of DA-ZP1; format: in vivo; details: single dose 50 mg/kg intraperitoneally, 10-12-week old C57BL/6 mice
Description: as §2

human β-cells [3] = assay: human islet cell-culture EdU proliferation assay; format: cell-based
Description: A human islet cell-culture system and proliferation assay developed by Wagner et al. was used to not only of preserve β-cell function over 7-10 days in culture, but also identify conditions that increase β-cell division.[32] The thymidine analog 5-ethinyl-2′-deoxyuridine (EdU) was used, which, when reacted with an azide-conjugated fluorophore, enables rapid and high-quality imaging of cells that have ever gone through S phase.[34] The detection was paired with insulin immunofluorescence, followed by automated imaging and analysis to identify EdU+ins+ cells after compound treatment. Islet cells were incubated with EdU for 6 days, consistent with the low rate of human β-cell proliferation. […] The quality of the assay was verified by using as a positive control adenoviral overexpression of human CDK6 and cyclin D1.[35]
[38] […] This effect was consistent across >20 human islet donors, irrespective of age, gender, BMI, or cause of death.

human β-cells [4] = assay: glucose-stimulated insulin secretion (GSIS) in dissociated islet cells; format: cell-based; details: cells treated for 12 days
Description: In the DMSO-treated state, glucose stimulated ˜2-fold increase in insulin secretion in dissociated islet cells. […] Although incompletely understood, the loss of basal secretion may be due to cell-death effects on other cells in the culture system.

DYRK1B = DYRK1B (Homo sapiens, UniProt Q9Y463); assay: kinase activity profiling, DYRK1B; format: biochemical
DYRK1B, sequence (Q9Y463 whole entry): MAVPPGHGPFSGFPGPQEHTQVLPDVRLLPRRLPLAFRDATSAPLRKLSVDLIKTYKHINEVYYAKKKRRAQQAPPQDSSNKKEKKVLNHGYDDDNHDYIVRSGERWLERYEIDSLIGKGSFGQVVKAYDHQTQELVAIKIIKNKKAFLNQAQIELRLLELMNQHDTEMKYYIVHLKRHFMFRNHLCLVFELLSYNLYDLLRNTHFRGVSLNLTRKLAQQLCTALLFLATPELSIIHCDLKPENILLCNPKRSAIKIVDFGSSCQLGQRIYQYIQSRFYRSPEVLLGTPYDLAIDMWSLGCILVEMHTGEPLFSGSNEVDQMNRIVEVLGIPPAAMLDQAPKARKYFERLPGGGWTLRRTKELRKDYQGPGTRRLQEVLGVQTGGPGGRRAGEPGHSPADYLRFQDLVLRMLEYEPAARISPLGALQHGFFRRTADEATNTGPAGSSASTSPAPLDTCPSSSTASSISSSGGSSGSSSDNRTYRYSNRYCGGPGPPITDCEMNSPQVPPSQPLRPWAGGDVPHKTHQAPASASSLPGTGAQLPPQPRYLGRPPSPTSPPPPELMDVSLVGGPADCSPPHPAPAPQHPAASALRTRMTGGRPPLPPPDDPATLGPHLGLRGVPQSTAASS

DYRK2 = biological target: T1, DYRK2 (Homo sapiens, UniProt Q92630); assay: kinase activity profiling, DYRK2; format: biochemical
T1 sequence (Q92630 1-601): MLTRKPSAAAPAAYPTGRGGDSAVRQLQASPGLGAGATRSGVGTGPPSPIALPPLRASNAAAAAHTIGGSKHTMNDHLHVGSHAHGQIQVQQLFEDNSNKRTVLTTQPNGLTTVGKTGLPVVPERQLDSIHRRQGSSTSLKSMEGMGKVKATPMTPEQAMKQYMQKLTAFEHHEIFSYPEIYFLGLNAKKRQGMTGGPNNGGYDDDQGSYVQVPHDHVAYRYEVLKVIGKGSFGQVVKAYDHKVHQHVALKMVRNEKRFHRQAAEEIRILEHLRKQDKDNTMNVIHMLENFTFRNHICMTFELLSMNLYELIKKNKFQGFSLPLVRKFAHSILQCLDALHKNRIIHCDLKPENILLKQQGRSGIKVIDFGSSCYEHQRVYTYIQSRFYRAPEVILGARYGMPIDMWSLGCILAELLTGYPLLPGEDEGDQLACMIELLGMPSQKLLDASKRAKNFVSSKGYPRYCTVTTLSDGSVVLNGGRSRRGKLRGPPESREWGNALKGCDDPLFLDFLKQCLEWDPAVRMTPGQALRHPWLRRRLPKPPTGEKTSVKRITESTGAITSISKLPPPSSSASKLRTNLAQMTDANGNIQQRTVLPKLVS

CLK1 = CLK1 (Homo sapiens, UniProt P49759); assay: kinase activity profiling, CLK1; format: biochemical
CLK1, sequence (P49759 whole entry): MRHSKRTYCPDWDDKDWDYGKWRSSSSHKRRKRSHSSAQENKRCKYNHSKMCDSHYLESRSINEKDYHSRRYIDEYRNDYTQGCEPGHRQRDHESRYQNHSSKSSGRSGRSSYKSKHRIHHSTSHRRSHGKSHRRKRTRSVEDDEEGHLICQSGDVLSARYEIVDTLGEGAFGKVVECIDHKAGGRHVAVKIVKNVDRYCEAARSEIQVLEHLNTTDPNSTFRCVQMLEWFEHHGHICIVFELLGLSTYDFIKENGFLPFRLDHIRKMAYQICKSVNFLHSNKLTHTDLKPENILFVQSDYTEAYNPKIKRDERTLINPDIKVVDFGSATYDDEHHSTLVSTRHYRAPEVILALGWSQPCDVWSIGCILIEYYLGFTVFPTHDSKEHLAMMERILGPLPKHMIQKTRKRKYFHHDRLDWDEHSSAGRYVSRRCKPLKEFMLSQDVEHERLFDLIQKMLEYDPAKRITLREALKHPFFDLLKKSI

CLK2 = CLK2 (Homo sapiens, UniProt P49760); assay: kinase activity profiling, CLK2; format: biochemical
CLK2, sequence (P49760 whole entry): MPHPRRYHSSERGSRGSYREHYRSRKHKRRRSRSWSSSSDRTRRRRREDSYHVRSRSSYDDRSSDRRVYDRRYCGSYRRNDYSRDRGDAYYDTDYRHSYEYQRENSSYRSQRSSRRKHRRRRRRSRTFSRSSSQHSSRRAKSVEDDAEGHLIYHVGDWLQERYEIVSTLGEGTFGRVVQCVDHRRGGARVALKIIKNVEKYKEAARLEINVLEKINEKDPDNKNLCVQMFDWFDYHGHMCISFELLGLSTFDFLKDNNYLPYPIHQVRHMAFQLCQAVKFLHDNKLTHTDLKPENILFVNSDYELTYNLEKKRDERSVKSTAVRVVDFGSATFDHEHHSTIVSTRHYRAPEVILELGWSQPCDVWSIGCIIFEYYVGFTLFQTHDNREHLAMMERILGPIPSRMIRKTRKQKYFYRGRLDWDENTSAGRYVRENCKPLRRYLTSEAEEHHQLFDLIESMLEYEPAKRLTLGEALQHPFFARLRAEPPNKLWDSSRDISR

CLK4 = CLK4 (Homo sapiens, UniProt Q9HAZ1); assay: kinase activity profiling, CLK4; format: biochemical
CLK4, sequence (Q9HAZ1 whole entry): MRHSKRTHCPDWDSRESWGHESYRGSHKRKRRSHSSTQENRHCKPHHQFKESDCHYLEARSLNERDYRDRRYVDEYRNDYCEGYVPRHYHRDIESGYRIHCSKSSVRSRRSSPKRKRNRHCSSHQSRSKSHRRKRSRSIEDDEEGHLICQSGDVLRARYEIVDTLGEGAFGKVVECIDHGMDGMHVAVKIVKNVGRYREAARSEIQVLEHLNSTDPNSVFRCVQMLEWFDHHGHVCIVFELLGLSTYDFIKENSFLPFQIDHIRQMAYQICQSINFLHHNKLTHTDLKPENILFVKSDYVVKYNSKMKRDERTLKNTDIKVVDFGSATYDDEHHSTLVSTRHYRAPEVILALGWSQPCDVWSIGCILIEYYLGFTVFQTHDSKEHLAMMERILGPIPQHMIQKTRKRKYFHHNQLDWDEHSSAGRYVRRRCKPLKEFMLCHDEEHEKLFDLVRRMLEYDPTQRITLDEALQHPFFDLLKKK

human β-cells [5] = assay: human islet grafts in NSG mice, β-cell replication; format: in vivo, human islets transplanted in NSG mice
Description: 1) Establishing a humanized mouse model: The humanized mouse model is established according to Kulkarni et al.[22,23] Briefly, the immunodeficient NOD.Cg-Prkdc^scidIl2rg^tm1Wj1SzJ mouse strain, commonly known as NOD-scid gamma (NSG), combines features of the NOD/ShiLtJ background and […], known as the severe combined immune deficiency mutation (scid), which essentially eliminates adaptive immunity. This strain has utility in studies of hematopoietic and cancer stem cells and of islet transplantation.
A separate group of mice with human islet transplants were injected with DMSO as vehicle controls, and sham-operated animals were used as an additional control group. The injection was repeated twice a week for 3 weeks. In the final week, we injected BrdU (100 mg/kg) daily for 4 days, and six hours after the last BrdU injection the pancreas was harvested. β-cell replication was assessed using previously described protocols.[23] For sivelestat experiments, osmotic pumps loaded with compound (300 μg/kg/day) were implanted into mice, and were treated for 14 days. Mice were provided BrdU in drinking water and injected i.p. on days 8, 11, and 14. Islets were harvested five hours after the last BrdU injection.

[6] = tested on: liver, adipose, muscle, and kidney tissue; assay: proliferation of other tissues in 5-IT-treated mice; format: in vivo; details: 0.625 mg/kg i.p. twice a week for 3 weeks
mouse islets (β-cells) [7] = assay: sivelestat treatment of mouse islets, β-cell proliferation; details: in vivo
Description: (§3) Next, sivelestat, a small-molecule inhibitor of elastinolytic proteases and thus a partial mimic of serpinB1 activity, was tested for β-cell proliferation. […] Thus, small molecules promote β-cell proliferation in human islets transplanted in vivo by targeting two independent pathways.

[8] = tested on: liver, skeletal muscle, visceral and subcutaneous adipose tissue, spleen, or kidney; format: in vivo, mouse; details: data not shown
Description: as §3

mouse islets (β-cells) [9] = assay: mouse islet culture, Ki67 proliferation; format: cell-based
Description: (§4) Liver was found as the source of a secreted factor in this model that can induce β-cell proliferation in mouse and human islets.[24] A proteomics effort using liver, liver explant-conditioned media, hepatocyte-conditioned media, and plasma led to the discovery that serpin B1, a protease inhibitor that targets elastases, is enriched in serum from LIRKO mice (FIG. 10).[1]

human islets (β-cells) = assay: human islet β-cell proliferation with rSerpinB1; format: cell-based
Description: as §4

[10] = human islet cells, 6 days of treatment
[11] = 0.625 mg/kg i.p. twice a week for 3 weeks

With CC(=O)Oc1c(Cl)cc2c(c1CN(Cc1ccccn1)Cc1ccccn1)Oc1c(cc(Cl)c(OC(C)=O)c1CN(Cc1ccccn1)Cc1ccccn1)C21OC(=O)c2ccccc21 [DA-ZP1] the “fluorescence in β-cells (INS-1E)” value (INS-1E) was “high average fluorescent cell intensity and high % fluorescence-positive cells”, the “fluorescence in β-cells (INS-1E)” value (INS-1E; listed as reaction-based probe) was “highly fluorescent” and the “fluorescence / labeling in other cell types” value [1] was “do not observe non-specific labeling”. For the same molecule, the “fluorescence / labeling in other cell types” value ([1]; listed as reaction-based probe) was “minimal background fluorescence”, the “overlap between glucagon-positive and zinc probe-positive cells” value [2] was “very little to no overlap” and the “overlap between insulin-positive and zinc probe-positive cells” value [2] was “high degree of overlap”. For the same molecule, the “fluorescence in islet sections” value (islets) was “Fluorescence was detected”.

With COc1ccc2c(c1)[nH]c1c(C)nccc12 [harmine] the “EdU+ins+ cells” value (human β-cells [3]; 5 and 10 μM, 6-days treatment, human islet cells) was “dose-dependent increase” and the “effect on EdU incorporation / β-cell proliferation” value (human β-cells [3]; human islet cells) was “promotes β-cell proliferation in a dose-dependent manner”.

Nc1ncnc2c1c(I)cn2[C@@H]1O[C@H](CO)[C@@H](O)[C@H]1O [5-IT, 5-iodotubercidin] was tested, and the “concentrations toxic to cells” value (human β-cells [3]; human islet cells) was “greater than 1 μM”, the “effect on EdU incorporation / β-cell proliferation” value (human β-cells [3]; human islet cells) was “promotes” and the “concentration of maximal effect on proliferation” value (human β-cells [3]; [10]) was 1 µM. The “increase in proliferation (EdU incorporation)” value (human β-cells [3]; [10]) was roughly 10 fold, the “proliferation of the other cell types in the heterogeneous culture system” value (human β-cells [3]; non-β cells of human islet culture) was “did not induce proliferation” and the “baseline secretion under low-glucose conditions” value (human β-cells [4]) was “decreased somewhat in a dose-dependent manner”. The “glucose-stimulated insulin secretion (GSIS)” value (human β-cells [4]) was “an increase in GSIS was observed”, the IC50 (DYRK1B) was 10 nM and the IC50 (DYRK2) was 6 nM. The IC50 (CLK1) was 36 nM, the IC50 (CLK2) was 10 nM and the IC50 (CLK4) was 14 nM. For the same molecule, the “increase in BrdU incorporation in human islet grafts” value (human β-cells [5]; [11]) was roughly 5 fold, the “mitosis by Ki67 and pHH3 immunostaining in human islet grafts” value (human β-cells [5]; [11]) was “enhanced mitosis was confirmed” and the “proliferation of liver, adipose, muscle, and kidney tissue, control vs treated mice” value [6] was “No significant differences”.

CC(C)(C)C(=O)Oc1ccc(S(=O)(=O)Nc2ccccc2C(=O)NCC(=O)O)cc1 [sivelestat] was tested, and the “proliferation of human β-cells (islet grafts)” value (human β-cells [5]; osmotic pumps 300 μg/kg/day, 14 days) was “increased proliferation”, the “β-cell proliferation in mouse islets” value (mouse islets (β-cells) [7]) was “increased β-cell proliferation” and the “effect on liver, skeletal muscle, visceral and subcutaneous adipose tissue, spleen, or kidney” value [8] was “without a significant effect”.

In the case of Nc1ncnc2nc(-c3ccc(N4CCOCC4)nc3)cc(-c3cccc(Br)c3)c12 [ABT-702, 4-amino-5-(3-bromophenyl)-7-(6-morpholinopyridin-3-yl)pyrido[2,3-d]pyrimidine], the “effect on EdU incorporation / β-cell proliferation” value (human β-cells [3]; human islet cells) is reported as “does not; also recorded: no effect”.

B1: rSerpinB1: recombinant human serpinB1, a protease inhibitor that targets elastases (protein, UniProt P30740 1-379, looked up)
Leukocyte elastase inhibitor: MEQLSSANTRFALDLFLALSENNPAGNIFISPFSISSAMAMVFLGTRGNTAAQLSKTFHFNTVEEVHSRFQSLNADINKRGASYILKLANRLYGEKTYNFLPEFLVSTQKTYGADLASVDFQHASEDARKTINQWVKGQTEGKIPELLASGMVDNMTKLVLVNAIYFKGNWKDKFMKEATTNAPFRLNKKDRKTVKMMYQKKKFAYGYIEDLKCRVLELPYQGEELSMVILLPDDIEDESTGLKKIEEQLTLEKLHEWTKPENLDFIEVNVSLPRFKLEESYTLNSDLARLGVQDLFNSSKADLSGMSGARDIFISKIVHKSFVEVNEEGTEAAAATAGIATFCMLMPEENFTADHPFLFFIRHNSSGSILFLGRFSSP
For B1, the “effect on Ki67+ insulin+ cells” value (mouse islets (β-cells) [9]) was “dose-dependent effect”, the “increase in the percentage of Ki67+ins+ cells” value (mouse islets (β-cells) [9]; dose of 1 μg/mL) was 2 fold and the “effect on Ki67+ insulin+ cells” value (mouse islets (β-cells) [9]; listed as serpinB1) was “dose-dependent effect”. The “effect on Ki67+ insulin+ cells” value (mouse islets (β-cells) [9]; listed as untagged SerpinB1) was “promotes” and the “β-cell proliferation from human islets” value (human islets (β-cells)) was “dose-dependent increase”.

B2: inactive N-tagged serpin B1 construct: inactive N-tagged serpin B1 construct from GeneCopoeia (protein, UniProt P30740 1-379, looked up)
Leukocyte elastase inhibitor: B1 Leukocyte elastase inhibitor
modifications: N-terminal tag; inactive
With B2 the “effect on Ki67+ insulin+ cells” value (mouse islets (β-cells) [9]) was “no impact”.

From US12208140B2, “Targeted delivery to beta cells” (THE BROAD INSTITUTE, INC., priority 2017, dated 2025)
